# Reference: patent publication US20100137305A1, “AMINOPYRIMIDINES USEFUL AS KINASE INHIBITORS” (VERTEX PHARMACEUTICALS INCORPORATED, priority 2008, published 2010)
# Like-named read-outs stand apart in the source and are kept apart here.
# Assays:
# Colo205 cells = assay: Analysis of Cell Proliferation, 3H thymidine incorporation; assay type: cell-based; conditions: Homo sapiens
# Description: Compounds were screened for their ability to inhibit cell proliferation using Colo205 cells obtained from ECACC and using the assay shown below.
# Colo205 cells were seeded in 96 well plates and serially diluted compound was added to the wells in duplicate. Control groups included untreated cells, the compound diluent (0.1% DMSO alone) and culture medium without cells. The cells were then incubated for 72 or 96 hrs at 37C in an atmosphere of 5% CO2/95% humidity.
# To measure proliferation, 3 h prior to the end of the experiment 0.5 μCi of 3H thymidine was added to each well. Cells were then harvested and the incorporated radioactivity counted on a Wallac microplate beta-counter. Dose response curves were calculated using either Prism 3.0 (GraphPad) or SoftMax Pro 4.3.1 LS (Molecular Devices) software.
# Aurora-2 (Aurora A) = biological target: T1, Aurora-2 (Aurora A) (Homo sapiens, UniProt O14965); assay: Aurora-2 (Aurora A) Inhibition Assay, coupled enzyme assay; assay type: biochemical; conditions: 400 μM ATP, 30° C.; read-out: Aurora A kinase activity Ki
# T1 sequence (O14965 1-403): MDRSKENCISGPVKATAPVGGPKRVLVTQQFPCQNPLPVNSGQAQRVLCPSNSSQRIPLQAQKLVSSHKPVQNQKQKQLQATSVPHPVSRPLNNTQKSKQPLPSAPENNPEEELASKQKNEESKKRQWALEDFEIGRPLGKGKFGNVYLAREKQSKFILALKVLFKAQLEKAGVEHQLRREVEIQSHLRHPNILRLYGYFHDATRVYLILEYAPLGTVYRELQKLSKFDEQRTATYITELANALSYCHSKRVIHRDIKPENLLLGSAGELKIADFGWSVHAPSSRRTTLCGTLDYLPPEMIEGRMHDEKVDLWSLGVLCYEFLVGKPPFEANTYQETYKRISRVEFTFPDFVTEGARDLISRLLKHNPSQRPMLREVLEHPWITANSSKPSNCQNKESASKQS
# Description: Compounds were screened for their ability to inhibit Aurora-2 using a standard coupled enzyme assay (Fox et al., Protein Sci., (1998) 7, 2249). Assays were carried out in a mixture of 100 mM Hepes (pH7.5), 10 mM MgCl2, 1 mM DTT, 25 mM NaCl, 2.5 mM phosphoenolpyruvate, 300 μM NADH, 30 μg/ml pyruvate kinase and 10 μg/ml lactate dehydrogenase. Final substrate concentrations in the assay were 400 μM ATP (Sigma Chemicals) and 570 μM peptide (Kemptide, American Peptide, Sunnyvale, Calif.). Assays were carried out at 30° C. and in the presence of 40 nM Aurora-2.
# An assay stock buffer solution was prepared containing all of the reagents listed above, with the exception of Aurora-2 and the test compound of interest. 55 μl of the stock solution was placed in a 96 well plate followed by addition of 2 μl of DMSO stock containing serial dilutions of the test compound (typically starting from a final concentration of 7.5 μM). The plate was preincubated for 10 minutes at 30° C. and the reaction initiated by addition of 10 μl of Aurora-2. Initial reaction rates were determined with a Molecular Devices SpectraMax Plus plate reader over a 10 minute time course. IC50 and Ki data were calculated from non-linear regression analysis using the Prism software package (GraphPad Prism version 3.0cx for Macintosh, GraphPad Software, San Diego Calif., USA).
# Aurora-1 (Aurora B) = Aurora-1 (Aurora B) (Homo sapiens, UniProt Q96GD4); assay: Aurora-1 (Aurora B) Inhibition Assay (radiometric); assay type: biochemical; conditions: 800 μM ATP; read-out: Aurora B kinase activity Ki
# Description: An assay buffer solution was prepared which consisted of 25 mM HEPES (pH 7.5), 10 mM MgCl2, 0.1% BSA and 10% glycerol. A 22 nM Aurora-B solution, also containing 1.7 mM DTT and 1.5 mM Kemptide (LRRASLG), was prepared in assay buffer. To 22 μL of the Aurora-B solution, in a 96-well plate, was added 2 μl of a compound stock solution in DMSO and the mixture allowed to equilibrate for 10 minutes at 25° C. The enzyme reaction was initiated by the addition of 16 μl stock [γ-^33P]-ATP Pi-ATP solution (˜20 nCi/μL) prepared in assay buffer, to a final assay concentration of 800 μM. The reaction was stopped after 3 hours by the addition of 16 μL 500 mM phosphoric acid and the levels of ^33P incorporation into the peptide substrate were determined by the following method.
# A phosphocellulose 96-well plate (Millipore, Cat no. MAPHNOB50) was pre-treated with 100 μL of a 100 mM phosphoric acid prior to the addition of the enzyme reaction mixture (40 μL). The solution was left to soak on to the phosphocellulose membrane for 30 minutes and the plate subsequently washed four times with 200 μL of a 100 mM phosphoric acid. To each well of the dry plate was added 30 μL of Optiphase ‘SuperMix’ liquid scintillation cocktail (Perkin Elmer) prior to scintillation counting (1450 Microbeta Liquid Scintillation Counter, Wallac). Levels of non-enzyme catalyzed background radioactivity were determined by adding 16 μL of the 500 mM phosphoric acid to control wells, containing all assay components (which acts to denature the enzyme), prior to the addition of the [γ-^33P]-ATP solution. Levels of enzyme catalyzed ^33P incorporation were calculated by subtracting mean background counts from those measured at each inhibitor concentration. For each Ki determination 8 data points, typically covering the concentration range 0-10 μM compound, were obtained in duplicate (DMSO stocks were prepared from an initial compound stock of 10 mM with subsequent 1:2.5 serial dilutions). Ki values were calculated from initial rate data by non-linear regression using the Prism software package (Prism 3.0, Graphpad Software, San Diego, Calif.).
# [1] = COLO 205, 96 h, 96 hours, read-out: IC50 cell proliferation after 96 hours
# [2] = COLO 205, 72 h, 72 hours, read-out: IC50 cell proliferation after 72 hours
# Aurora-1 (Aurora B), sequence (Q96GD4 whole entry): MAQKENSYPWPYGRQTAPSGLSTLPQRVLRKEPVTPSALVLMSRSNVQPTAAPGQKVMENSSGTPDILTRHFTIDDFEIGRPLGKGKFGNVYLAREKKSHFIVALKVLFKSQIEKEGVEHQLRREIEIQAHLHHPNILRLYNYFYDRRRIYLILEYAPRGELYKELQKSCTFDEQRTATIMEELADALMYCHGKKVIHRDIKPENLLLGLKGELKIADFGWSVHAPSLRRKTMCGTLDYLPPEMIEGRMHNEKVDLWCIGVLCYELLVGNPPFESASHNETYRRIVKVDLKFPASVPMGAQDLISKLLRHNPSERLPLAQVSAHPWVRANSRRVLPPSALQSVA
Structure (SMILES),IC50 (Colo205 cells; [1]),Ki (Aurora-2 (Aurora A)),Ki (Aurora-1 (Aurora B)),IC50 (Colo205 cells; [2])
CCC(=O)Nc1ccc(Sc2nc(Nc3cc(C)[nH]n3)cc(N3CCC4(CC3)OCCO4)n2)cc1 [Compound I-15],50 to 200 nM,≤ 10 nM,10 to 50 nM,
CCC(=O)Nc1ccc(Sc2nc(Nc3cc(C)n[nH]3)cc(N3CCC(O)(C(C)C)CC3)n2)cc1 [Compound I-58],≤ 50 nM,≤ 10 nM,10 to 50 nM,
Cc1cc(Nc2cc(N3CCC(F)(F)CC3)nc(Sc3ccc(NC(=O)CC(F)(F)F)cc3)n2)[nH]n1 [Compound I-84],,≤ 10 nM,10 to 50 nM,25 to 125 nM
Cc1cc(Nc2cc(N3CCC4(CC3)CCN(C(C)C)C4)nc(Sc3ccc(NC(=O)C4CC4)cc3)n2)[nH]n1 [Compound I-31],50 to 200 nM,≤ 10 nM,10 to 50 nM,
Cc1cc(Nc2cc(N3CCC(F)C3)nc(Sc3ccc(NC(=O)c4ccccc4Cl)cc3)n2)[nH]n1 (stereo not shown) [Compound I-35],50 to 200 nM,≤ 10 nM,≤ 10 nM,
CCC(=O)Nc1ccc(Sc2nc(Nc3cc(C)n[nH]3)cc(N3CCC(C)(O)C3)n2)cc1 (stereo not shown) [Compound I-11],50 to 200 nM,≤ 10 nM,10 to 50 nM,
CCC(=O)Nc1ccc(Sc2nc(Nc3cc(C)n[nH]3)cc(N3CC[C@@H](NC)C3)n2)cc1 [Compound I-9],50 to 200 nM,≤ 10 nM,10 to 50 nM,
Cc1cnc(Nc2cc(N3CCC(N4CCN(C)CC4)CC3)nc(Sc3ccc(NC(=O)CC(F)(F)F)cc3)n2)s1 [Compound I-66],,≤ 10 nM,10 to 50 nM,≤ 25 nM
CCC(=O)Nc1ccc(Sc2nc(Nc3cc(C)n[nH]3)cc(N3CCC(C)(O)CC3)n2)cc1 [Compound I-21],50 to 200 nM,≤ 10 nM,10 to 50 nM,
Cc1cc(Nc2cc(N3CCC(N4CCOCC4)CC3)nc(Sc3ccc(NC(=O)C4(C(F)(F)F)CC4)cc3)n2)[nH]n1 [Compound I-67],,≤ 10 nM,≤ 10 nM,≤ 25 nM
Cc1cnc(Nc2cc(N3CC4CCCNC4C3)nc(Sc3ccc(NC(=O)C4CC4)cc3)n2)s1 (stereo not shown) [Compound I-59],≤ 50 nM,≤ 10 nM,10 to 50 nM,≤ 25 nM
CCC(=O)Nc1ccc(Sc2nc(Nc3cc(C)n[nH]3)cc(N3CCC(C(C)(C)OC)CC3)n2)cc1 [Compound I-45],≤ 50 nM,≤ 10 nM,10 to 50 nM,
Cc1cc(Nc2cc(N3CC[C@@H](F)C3)nc(Sc3ccc(NC(=O)c4ccccc4C(F)(F)F)cc3)n2)[nH]n1 [Compound I-74],,≤ 10 nM,≤ 10 nM,≤ 25 nM
CCC(=O)Nc1ccc(Sc2nc(Nc3cc(C)n[nH]3)cc(N3CCC(N4CCCC4(C)C)CC3)n2)cc1 [Compound I-33],50 to 200 nM,≤ 10 nM,10 to 50 nM,
CCC(=O)Nc1ccc(Sc2nc(Nc3cc(C)[nH]n3)cc(N3CCC(=O)CC3)n2)cc1 [Compound I-17],50 to 200 nM,≤ 10 nM,10 to 50 nM,
CO[C@H]1CCN(c2cc(Nc3ncc(C)s3)nc(Sc3ccc(NC(=O)C4CC4)cc3)n2)C1 [Compound I-14],50 to 200 nM,≤ 10 nM,10 to 50 nM,
Cc1cc(Nc2cc(N3CC[C@H](N(C)C)C3)nc(Sc3ccc(NC(=O)c4ccccc4C(F)(F)F)cc3)n2)[nH]n1 [Compound I-70],,≤ 10 nM,≤ 10 nM,≤ 25 nM
Cc1cc(Nc2cc(N3CCC(F)C3)nc(Sc3ccc(NC(=O)c4ccccc4C(F)(F)F)cc3)n2)[nH]n1 (stereo not shown) [Compound I-76],,≤ 10 nM,≤ 10 nM,25 to 125 nM
Cc1cc(Nc2cc(N3CCC4(CCN(C)C4)CC3)nc(Sc3ccc(NC(=O)C4CC4)c(F)c3)n2)[nH]n1 [Compound I-32],50 to 200 nM,≤ 10 nM,≤ 10 nM,
Cc1cc(Nc2cc(N3CCC(N4CCCC4)CC3)nc(Sc3ccc(NC(=O)CC4CCCC4)cc3)n2)n[nH]1 [Compound I-77],,≤ 10 nM,10 to 50 nM,25 to 125 nM
